Assay results: US9212151B2, “Heterocyclic compounds useful for kinase inhibition” (Amitech Therapeutic Solutions, Inc., priority 2010, dated 2015)

Assay: MTT cell viability assay, compounds at 5, 1 and 0.2 μM, 48 hours
Format: cell-based
Settings: human, A549 tumor cells
Outline: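 A549 cells were seeded at 2500/well in DMEM + 10% FBS, grown overnight, then exposed to compound for 48 h. Viability was read by MTT (5 mg/ml, 4 h), with formazan dissolved in DMSO and absorbance measured at 560/570 nm to give survival rate.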

SMILES	viability at 48 h, 0.2 µM (0.2 μM)	viability at 48 h, 1 µM (1 μM)	viability at 48 h, 5 µM (5 μM)	viability at 48 h, 0.2 µM (0.2 μM compound)	viability at 48 h, 1 µM (1 μM compound)	viability at 48 h, 5 µM (5 μM compound)
CSc1nc(N)cc(Oc2ccc(-c3nnc(Nc4cc(C(F)(F)F)cc(C(F)(F)F)c4)[nH]3)cc2)n1 [Compound 120]	> 70%	> 70%	> 70%			
FC(F)(F)c1cccc(Nc2nnc(-c3ccc(Oc4ccnc5cc(C(F)(F)F)ccc45)cc3)[nH]2)c1 [Compound 148]	> 70%	> 70%	> 70%			
COc1cc(Oc2cccc(-c3nnc(Nc4cccc(C(F)(F)F)c4)[nH]3)c2)ncn1 [Compound 93]	> 70%	> 70%	50 to 70%			
FC(F)(F)c1cccc(Nc2nnc(-c3ccc(Oc4ccncc4C(F)(F)F)cc3)[nH]2)c1 [Compound 8]	> 70%	> 70%	50 to 70%			
COc1ccc2c(Oc3cccc(-c4nnc(Nc5cccc(C(F)(F)F)c5)[nH]4)c3)ccnc2c1 [Compound 22]	> 70%	> 70%	> 70%			
FC(F)(F)c1cccc(Nc2nnc(-c3ccc(Oc4cc(C(F)(F)F)nc5ccccc45)cc3)[nH]2)c1 [Compound 159]	> 70%	> 70%	50 to 70%			
NS(=O)(=O)c1cnccc1Oc1cccc(-c2nnc(Nc3cccc(C(F)(F)F)c3)o2)c1 [Compound 39]	> 70%	> 70%	> 70%			
Cc1cc(Oc2cccc(-c3nnc(Nc4cccc(C(F)(F)F)c4)[nH]3)c2)c2ccccc2n1 [Compound 168]	> 70%	> 70%	50 to 70%			
CC(=O)NCCSc1nc(N)cc(Oc2ccc(-c3nnc(Nc4cccc(C(F)(F)F)c4)[nH]3)cc2)n1 [Compound 114]	> 70%	> 70%	> 70%			
Nc1cc(Oc2ccc(-c3nnc(Nc4cccc(C(F)(F)F)c4)[nH]3)cc2)nc(Sc2ccccn2)n1 [Compound 152]	> 70%	> 70%	> 70%			
COc1ccc2c(Oc3ccc(Nc4nnc(-c5cccc(Cl)c5)[nH]4)cc3)ccnc2c1 [Compound 198]				> 70%	> 70%	> 70%
CSc1nc(N)cc(Oc2ccc(-c3nnc(Nc4cccc(C(F)(F)F)c4)[nH]3)c(F)c2)n1 [Compound 107]	> 70%	> 70%	50 to 70%			
COc1ccc2c(Oc3ccc(-c4nnc(Nc5cccc(C(F)(F)F)c5)[nH]4)cc3)cc(C)nc2c1 [Compound 188]	> 70%	> 70%	> 70%			
FC(F)(F)c1cccc(Nc2nnc(-c3ccc(Oc4ccncc4)cc3)o2)c1 [Compound 29]	> 70%	> 70%	50 to 70%			
COc1ccc2c(Oc3ccc(Nc4nnc(-c5cccc(C(F)(F)F)c5)[nH]4)cc3)ccnc2c1 [Compound 175]	> 70%	> 70%	> 70%			
CCc1nc(N)cc(Oc2ccc(-c3nnc(Nc4cccc(C(F)(F)F)c4)[nH]3)cc2)n1 [Compound 81]	> 70%	50 to 70%	< 50%			
COc1ccc2c(Oc3cccc(-c4nnc(Nc5cccc(C(F)(F)F)c5)[nH]4)c3)cc(C)nc2c1 [Compound 194]	> 70%	> 70%	> 70%			
COc1nccc(Oc2cccc(-c3nnc(Nc4cccc(C(F)(F)F)c4)[nH]3)c2)n1 [Compound 88]	> 70%	> 70%	> 70%			
CSc1nc(N)cc(Oc2ccc(-c3nnc(Nc4ccc(C)c(C)c4)[nH]3)cc2)n1 [Compound 125]	> 70%	> 70%	< 50%			
Cc1cc(Oc2ccc(-c3nnc(Nc4cccc(C(F)(F)F)c4)[nH]3)cc2)c2ccccc2n1 [Compound 158]	> 70%	> 70%	50 to 70%			

SMILES	viability at 48 h, 0.2 µM (0.2 μM)	viability at 48 h, 1 µM (1 μM)	viability at 48 h, 5 µM (5 μM)	viability at 48 h, 0.2 µM (0.2 μM compound)	viability at 48 h, 1 µM (1 μM compound)	viability at 48 h, 5 µM (5 μM compound)
CSc1nc(N)cc(Oc2cccc(-c3nnc(Nc4cccc(C(F)(F)F)c4)s3)c2)n1 [Compound 48]	> 70%	> 70%	> 70%			
COc1cc2ncnc(Oc3cccc(-c4nnc(Nc5cccc(C(F)(F)F)c5)[nH]4)c3)c2cc1OC [Compound 170]	> 70%	> 70%	> 70%			
NS(=O)(=O)c1cnccc1Oc1ccc(-c2nnc(Nc3cccc(C(F)(F)F)c3)[nH]2)cc1 [Compound 7]	> 70%	> 70%	> 70%			
FC(F)(F)c1cccc(Nc2nnc(-c3ccc(Oc4ncnc5[nH]ccc45)cc3)o2)c1 [Compound 32]	> 70%	> 70%	> 70%			
FC(F)(F)c1cccc(Nc2nnc(-c3cccc(Oc4ccncc4)c3)o2)c1 [Compound 37]	> 70%	> 70%	> 70%			
Nc1nccc(Oc2ccc(-c3nnc(Nc4cccc(C(F)(F)F)c4)o3)cc2)n1 [Compound 27]	> 70%	> 70%	50 to 70%			
CSc1nc(N)cc(Oc2ccc(-c3nnc(Nc4ccccc4C)[nH]3)cc2)n1 [Compound 154]	50 to 70%	< 50%	< 50%			
FC(F)(F)c1cccc(Nc2nnc(-c3ccc(Oc4nccc(Cl)n4)cc3)o2)c1 [Compound 26]	> 70%	> 70%	> 70%			
CS(=O)(=O)c1nc(N)cc(Oc2ccc(-c3nnc(Nc4cccc(C(F)(F)F)c4)[nH]3)cc2)n1 [Compound 64]	> 70%	> 70%	> 70%			
FC(F)(F)c1cccc(Nc2nnc(-c3ccc(Oc4nccc5ccccc45)cc3)[nH]2)c1 [Compound 149]	> 70%	> 70%	50 to 70%			
NCCSc1nc(N)cc(Oc2ccc(-c3nnc(Nc4cccc(C(F)(F)F)c4)[nH]3)cc2)n1 [Compound 62]	> 70%	> 70%	> 70%			
FC(F)(F)c1cccc(Nc2nnc(-c3cccc(Oc4ccnc5ccccc45)c3)[nH]2)c1 [Compound 23]	> 70%	> 70%	> 70%			
NS(=O)(=O)c1cnccc1Oc1ccc(-c2nnc(Nc3cccc(C(F)(F)F)c3)o2)cc1 [Compound 31]	> 70%	> 70%	> 70%			
Cc1nccc(Oc2cccc(-c3nnc(Nc4cccc(C(F)(F)F)c4)[nH]3)c2)n1 [Compound 55]	50 to 70%	50 to 70%	< 50%			
Cc1nccc(Oc2ccc(-c3nnc(Nc4cccc(C(F)(F)F)c4)[nH]3)cc2)n1 [Compound 51]	> 70%	50 to 70%	< 50%			
CSc1nc(N)cc(Oc2ccc(-c3nnc(Nc4cccc(C(=O)O)c4)[nH]3)cc2)n1 [Compound 153]	> 70%	> 70%	> 70%			
O=c1cc(COc2ccc(-c3nnc(Nc4cccc(C(F)(F)F)c4)[nH]3)cc2)c2ccccc2[nH]1 [Compound 161]	> 70%	50 to 70%	< 50%			
COc1nc(N)cc(Oc2cccc(-c3nnc(Nc4cccc(C(F)(F)F)c4)[nH]3)c2)n1 [Compound 89]	> 70%	> 70%	> 70%			
COCCOc1cc(Oc2cccc(-c3nnc(Nc4cccc(C(F)(F)F)c4)[nH]3)c2)nc(N)n1 [Compound 58]	> 70%	> 70%	> 70%			
CSc1nc(N)cc(Oc2ccc(-c3nnc(Nc4ccc5c(c4)-c4ccccc4C5)[nH]3)cc2)n1 [Compound 136]	> 70%	50 to 70%	< 50%			
